Positions count from the first letter of the chain named. Several values for one entry are separate records, joined by “and”; a condition that tells them apart may be missing. Identical values can stand only once.
Tests used:
xls1R-C179 or xls1R-C203 = assay: mPEG-Mal-5K modification of xlσ1R cysteine mutants with added PRE084 (SDS-PAGE); format: biochemical, Xenopus laevis; conditions: 1 mM PRE084 added to dialyzed protein sample before mPEG-Mal-5K treatment
Experimental: Modification of wild-type and cysteine mutants of xlσ1R was performed with a bulky thiol-modifying reagent, methoxypolyethylene glycol maleimide 5000 (mPEG-Mal-5K)[33]. Briefly, the SEC-purified xlσ1R protein in the absence of β-mercaptoethanol were incubated with 1 mM mPEG-Mal-5K at room temperature for 1 h, and the modification reaction was stopped by addition of β-mercaptoethanol to a final concentration of 10 mM before another SEC purification to remove any free mPEG-Mal-5K. For the entrance blocking experiment, the modified xlσ1R-C179 or xlσ1R-C203 proteins were subjected to ITC or SDS-PAGE analysis. For the assessment of disulfide formation in xlσ1R-C179/C203, the modified sample was analyzed by SDS-PAGE. To reduce background modification and facilitate gel analysis, the only native cysteine (Cys91) was mutated to serine in all samples for the disulfide analysis. […]
would affect the modification efficiency (Response Fig. 1). However, extensive dialysis of the […]
1 to lane 5 for C179, and lane 3 to la ne 7 f o r C2 03). […]
modification efficiency (compare lane 1 to lane 2 for C179, and lane 3 to lane 4 for C203).
Therefore, it seems less likely that the ligand binding hindered mPEG -Ma l-5K modification. […]
before mPEG-Ma l-5K treatment were indicated above the gel. Protein samples were analyzed by SDS-PAGE and Coomassie blue staining. […]

xlσ1R-C203 = biological target: T1, xlσ1R-C203 (Xenopus laevis, UniProt Q6DCU6, Y203C); assay: ITC binding of PRE084 to xlσ1R-C203 before/after mPEG-Mal-5K modification
T1 construct: The gene encoding the full-length wild-type σ1R from Xenopus laevis; hemagglutinin signal peptide (N); decahistidine (His10) (N); TEV protease recognition site (N); made in house; host or cells: Pichia pastoris GS115
T1 sequence (Q6DCU6 1-221 Y203C): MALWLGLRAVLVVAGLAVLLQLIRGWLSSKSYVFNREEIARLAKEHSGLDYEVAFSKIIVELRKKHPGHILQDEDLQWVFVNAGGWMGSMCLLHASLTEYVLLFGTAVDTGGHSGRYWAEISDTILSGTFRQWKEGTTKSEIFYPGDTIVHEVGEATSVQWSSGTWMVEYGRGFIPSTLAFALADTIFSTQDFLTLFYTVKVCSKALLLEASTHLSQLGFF

wild-type xlσ1R = biological target: T2, wild-type xlσ1R (Xenopus laevis, UniProt Q6DCU6); assay: ITC binding of PRE084 to wild-type xlσ1R before/after mPEG-Mal-5K modification; conditions: for WT stoichiometry, After modification: mPEG-Mal-5K; for Kd: WT Kd
T2 construct: The gene encoding the full-length wild-type σ1R from Xenopus laevis; hemagglutinin signal peptide (N); decahistidine (His10) (N); TEV protease recognition site (N); made in house; host or cells: Pichia pastoris GS115
T2 sequence (Q6DCU6 1-221): T1 sequence (Q6DCU6 1-221 Y203C) with C203Y

xlσ1R-C179 = biological target: T3, xlσ1R-C179 (Xenopus laevis, UniProt Q6DCU6, L179C); assay: ITC binding of PRE084 to xlσ1R-C179 before/after mPEG-Mal-5K modification
T3 construct: The gene encoding the full-length wild-type σ1R from Xenopus laevis; hemagglutinin signal peptide (N); decahistidine (His10) (N); TEV protease recognition site (N); made in house; host or cells: Pichia pastoris GS115
T3 sequence (Q6DCU6 1-221 L179C): T1 sequence (Q6DCU6 1-221 Y203C) with L179C, C203Y

xlσ1R-C179/C203 = biological target: T4, xlσ1R-C179/C203 (Xenopus laevis, UniProt Q6DCU6, L179C/Y203C); assay: ITC binding of PRE084 to xlσ1R-C179/C203 (disulfide oxidation / re-reduction)
T4 construct: The gene encoding the full-length wild-type σ1R from Xenopus laevis; hemagglutinin signal peptide (N); decahistidine (His10) (N); TEV protease recognition site (N); made in house; host or cells: Pichia pastoris GS115
T4 sequence (Q6DCU6 1-221 L179C/Y203C): T1 sequence (Q6DCU6 1-221 Y203C) with L179C

wild-type xls1R = biological target: T5, wild-type xls1R (Xenopus laevis, UniProt Q6DCU6); assay: Resistance of wild-type xlσ1R to chymotrypsin with added PRE084 (SDS-PAGE); format: biochemical; conditions: 1 mM PRE084 added to dialyzed protein before chymotrypsin treatment
T5 construct: The gene encoding the full-length wild-type σ1R from Xenopus laevis; hemagglutinin signal peptide (N); decahistidine (His10) (N); TEV protease recognition site (N); made in house; host or cells: Pichia pastoris GS115
T5 sequence (Q6DCU6 1-221): T1 sequence (Q6DCU6 1-221 Y203C) with C203Y

[1] = Dissolution of DIM-3C for crystal soaking; format: physicochemical; conditions: for soaking xlσ1R crystals
From the text: Finally, it is worth mentioning another structural effort that we attempted to capture an open conformation of σ1R by soaking a ligand of extended length into the xlσ1R crystals. We anticipated that the ligand would extend through the ligand entrance and cause the receptor to adopt an open state. Such an extended ligand, N^1,N^3-bis(1-((R)-3-([1,1′-biphenyl]-4-yl)butyl)-piperidin-4-yl)malonamide (DIM-3C)[21], was kindly provided by Dr. Collina and Dr. Rossino for soaking the xlσ1R crystals. […] The density was readily and best modeled with an S1RA molecule. Its morpholine ring sits between α4 and α5 and is surrounded by residues 179, 203, and Leu97, whereas the rest of the ligand remains outside of the receptor, possibly representing an entering (or exiting) pose for the ligand. Meanwhile, due to the relatively low resolution (3.80 Å) of the xlσ1RC179/C203-S1RA structure, this extra density needs to be interpreted with caution, and we used it only for supplementary discussion.

[2] = ITC, Mean of repeats (source data Fig. 4e)
[3] = equilibrium dissociation constant (Kd)
[4] = ITC, individual repeats (source data Fig. 4e)

O=C(OCCN1CCOCC1)C1(c2ccccc2)CCCCC1 [PRE084, [2-(morpholin-4-yl)ethyl] 1-phenylcyclohexane-1-carboxylate]
effect of added ligand on mPEG-Mal-5K modification efficiency (xls1R-C179 or xls1R-C203): no appreciable effect | Kd (xlσ1R-C203; C203 Kd, After modification): 1500 nM and 1730 nM and 1620 nM | Kd (xlσ1R-C203; C203 Kd, Before modification): 971 nM and 977 nM and 1030 nM | C203 stoichiometry, Before modification (xlσ1R-C203; [2]): 0.8717 | Kd (xlσ1R-C203; [3]): 1610 nM and 990 nM | change of affinity (Kd) after mPEG-Mal-5K treatment (wild-type xlσ1R): changed little | WT stoichiometry, Before modification (wild-type xlσ1R; [2]): 0.8695 | WT stoichiometry, Before modification (wild-type xlσ1R; [4]): 0.883 and 0.874 and 0.993 and 0.728 | WT stoichiometry, After modification (wild-type xlσ1R; [2]): 0.9143 | WT stoichiometry, After modification (wild-type xlσ1R; [4]): 0.933 and 0.896 and 0.874 and 1.040 and 0.883 and 0.860 | change of stoichiometry (number of available binding sites per protomer) after mPEG-Mal-5K treatment (wild-type xlσ1R; ITC, modification of native Cys91): changed little | Kd (wild-type xlσ1R; After modification): 1.22 µM and 1.29 µM and 1.23 µM and 1.08 µM (2×) and 1.12 µM | Kd (wild-type xlσ1R; Before modification): 1120 nM and 1210 nM and 871 nM and 1100 nM | Kd (xlσ1R-C179; C179 Kd, After modification): 1910 nM and 2010 nM and 1930 nM and 1970 nM | Kd (xlσ1R-C179; C179 Kd, Before modification): 972 nM and 990 nM and 1090 nM and 1040 nM | Kd (xlσ1R-C179; [3]): 1020 nM and 1950 nM | Kd (xlσ1R-C179/C203; C179/C203 Kd, After oxidation): 7810 nM and 5080 nM and 7240 nM | Kd (xlσ1R-C179/C203; C179/C203 Kd, Before oxidation): 960 nM and 710 nM and 380 nM and 510 nM and 850 nM | Kd (xlσ1R-C179/C203; C179/C203 Kd, Re-reduction): 1760 nM and 1390 nM and 1450 nM and 1570 nM | Kd (xlσ1R-C179/C203; [3]): 680 nM and 6710 nM and 1540 nM | effect of added ligand on chymotrypsin digestion (wild-type xls1R): no appreciable effect

C[C@H](CCN1CCC(NC(=O)CC(=O)NC2CCN(CC[C@@H](C)c3ccc(-c4ccccc4)cc3)CC2)CC1)c1ccc(-c2ccccc2)cc1 [DIM-3C, N^1,N^3-bis(1-((R)-3-([1,1′-biphenyl]-4-yl)butyl)-piperidin-4-yl)malonamide]
solubility [1]: could only be dissolved with organic solvents such as methanol and dimethyl sulfoxide
